Test results reported in patent US7582628B2, “Pyrrolo[3,4-c]pyrazole derivatives active as kinase inhibitors, process for their preparation and pharmaceutical compositions comprising them” (Pfizer Italia S.r.l., priority 2003, dated 2009).

Key:
HCT-116 [1] = experiment: In vitro cell proliferation assay; assay type: cell-based; details: Homo sapiens; HCT-116, 72 hours of treatment; read-out: Cell Antiproliferation IC50
Description: In Vitro Cell Proliferation Assay
The human colon cancer cell line HCT-116 was seeded at 5000 cells/cm2 in 24 wells plate (Costar) using F12 medium (Gibco) supplemented with 10% FCS (EuroClone, Italy) 2 mM L-glutamine and 1% penicillin/streptomycin and maintained at 37° C., 5% CO2 and 96% relative humidity. The following day, plates were treated in duplicates with 5 ul of an appropriate dilution of compounds starting from a 10 mM stock in DMSO. Two untreated control wells were included in each plate. After 72 hours of treatment, medium was withdrawn and cells detached from each well using 0.5 ml of 0.05% (w/v) Trypsin, 0.02% (w/v) EDTA (Gibco). Samples were diluted with 9.5 ml of Isoton (Coulter) and counted using a Multisizer 3 cell counter (Beckman Coulter). Data were evaluated as percent of the control wells: % of CTR=(Treated−Blank)/(Control−Blank).
IC50 values were calculated by LSW/Data Analysis using Microsoft Excel sigmoidal curve fitting.

HCT-116 [2] = experiment: In vitro cell cycle analysis; assay type: cell-based, human; details: HCT-116, 200 nM, treated for 24 hours
Description: In Vitro Cell Cycle Analysis
The human colon cancer cell line HCT-116 was seeded at 5000 cells/cm2 in 24 wells plate (Costar) and cultured as mentioned above. Cells in their exponential phase of growth were treated for 24 hours with different concentrations of compound. Also, culture medium supernatant was collected to avoid loss of detached apoptotic or mitotic cells. Thereafter, cells were washed using PBS and detached by 0.05% (w/v) trypsin, 0.02% (w/v) EDTA (Gibco). Trypsin activity was stopped using culture medium. Adherent and non-adherent cell fractions were pooled and centrifuged at 2000 rpm for 10 minutes. Cells were re-suspended in PBS and counted using a Multisizer 3 cell counter (Beckman Coulter). For fixation, ethanol was added (70%, v/v) and cells were kept at −20° C. overnight.
One million fixed cells were centrifuged at 2000 rpm for 5 minutes and washed with PBS and subsequently stained for 1 hour at room temperature in the dark by adding 200 µl: 25 µg/ml propidium iodide (Sigma) and 15 ug/ml RNAse A (Sigma), 0.001% (v/v) Nonidet P40 (Sigma) in sodium citrate (0.1% w/v, pH 7.5). Samples were analyzed by flow cytometry at 488 nm excitation (FACSCalibur, Beckton Dickinson) using Cell Quest 3.0 software (Beckton Dickinson). Typically 10000 events (activating doubles discriminate module DDM and gating only single cells) were collected and cell cycle profiles were recorded using CellQuest (Verity Software). Cell Cycle distribution of the population was calculated using a modified model in Modfit 3.1 software (Verity Software) and expressed in % G0/G1, S, G2/M and polyploidy.

Aurora-2 = target: T1, Aurora-2 (Homo sapiens, UniProt O14965); experiment: Inhibition assay of Aurora-2 activity (SPA); assay type: biochemical; details: 10 μM ATP, 60 minutes at room temperature
T1 sequence (O14965 1-403): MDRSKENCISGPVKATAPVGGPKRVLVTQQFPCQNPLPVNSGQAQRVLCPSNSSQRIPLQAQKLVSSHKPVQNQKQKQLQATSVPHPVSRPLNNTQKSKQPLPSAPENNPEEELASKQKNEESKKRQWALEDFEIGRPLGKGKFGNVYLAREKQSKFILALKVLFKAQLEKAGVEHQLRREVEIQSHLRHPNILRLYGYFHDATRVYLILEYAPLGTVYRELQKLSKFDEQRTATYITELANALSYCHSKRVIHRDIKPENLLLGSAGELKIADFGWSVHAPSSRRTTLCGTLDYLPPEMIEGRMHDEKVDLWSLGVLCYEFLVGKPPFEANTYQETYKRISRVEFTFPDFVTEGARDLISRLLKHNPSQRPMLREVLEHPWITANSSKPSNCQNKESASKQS
Description: The inhibiting activity and the potency of selected compounds is determined through a method of assay based on the use of the SPA technology (Amersham Pharmacia Biotech). The assay consists of the transfer of radioactivity labelled phosphate moiety by the kinase to a biotinylated substrate. The resulting 33P-labelled biotinylated product is allowed to bind to streptavidin-coated SPA beads (biotin capacity 130 pmol/mg), and light emitted was measured in a scintillation counter.
Inhibition Assay of Aurora-2 Activity
Kinase reaction: 8 μM biotinylated peptide (4 repeats of LRRWSLG), 10 μM ATP (0.5 uCi P^33γ-ATP), 7.5 ng Aurora 2, inhibitor in a final volume of 30 μl buffer (HEPES 50 mM pH 7.0, MgCl2 10 mM, 1 mM DTT, 0.2 mg/ml BSA, 3 μM orthovanadate) were added to each well of a 96 U bottom well plate. After 60 minutes at room temperature incubation, reaction was stopped and biotinylated peptide captured by adding 100 μl of bead suspension.
Stratification: 100 μl of CsCl2 5 M were added to each well and let stand 4 hour before radioactivity was counted in the Top-Count instrument.
IC50 determination: inhibitors were tested at different concentrations ranging from 0.0015 to 10 μM. Experimental data were analyzed by the computer program GraphPad Prizm using the four parameter logistic equation: y=bottom+(top−bottom)/(1+10^((log IC50−x)*slope)) where x is the logarithm of the inhibitor concentration, y is the response; y starts at bottom and goes to top with a sigmoid shape.

SMILES	IC50 (HCT-116 [1]) [nM]	Cell Cycle block (% G2/M + polyploidy at 200 nM) (HCT-116 [2]) [%]	IC50 (Aurora-2) [nM]
CO[C@@H](C(=O)N1Cc2[nH]nc(NC(=O)c3ccc(N4CCN(C)CC4)cc3)c2C1)c1ccccc1 [Compound (1), N-{5-[(2R)-2-methoxy-2-phenylethanoyl]-1,4,5,6-tetrahydropyrrolo[3,4-c]pyrazol-3-yl}-4-(4-methylpiperazin-1-yl)benzamide]	31	90	
CO[C@@H](C(=O)N1Cc2[nH]nc(NC(=O)c3ccc(N4CCN(C)C(C)C4)cc3)c2C1)c1ccccc1 (stereo partly drawn) [Compound (5), 4-(3,4-dimethylpiperazin-1-yl)-N-{5-[(2R)-2-methoxy-2-phenylethanoyl]-1,4,5,6-tetrahydropyrrolo[3,4-c]pyrazol-3-yl}benzamide]	50	90	18
CO[C@@H](C(=O)N1Cc2[nH]nc(NC(=O)c3ccc(N4CCCCC4)cc3)c2C1)c1ccccc1 [Compound (6), N-{5-[(2R)-2-methoxy-2-phenylethanoyl]-1,4,5,6-tetrahydropyrrolo[3,4-c]pyrazol-3-yl}-4-piperidin-1-ylbenzamide]	30	90	37
C[C@@H](C(=O)N1Cc2[nH]nc(NC(=O)c3ccc(N4CCN(C)CC4)cc3)c2C1)c1ccccc1 [Compound (11), N-{5-[(2R)-2-methyl-2-phenylethanoyl]-1,4,5,6-tetrahydropyrrolo[3,4-c]pyrazol-3-yl}-4-(4-methylpiperazin-1-yl)benzamide]	17	90	63
CN1CCN(c2ccc(C(=O)Nc3[nH]nc4c3CN(C(=O)Cc3ccccc3)C4)cc2)CC1 [Reference compound, N-{5-phenylacetyl-4,6-dihydropyrrolo[3,4-c]pyrazol-3-yl}-4-(4-methylpiperazino)benzamide, reference compound]	220	33	140
